Data as given in publication PMC13083723 (Patterns, 2026).
Where a name gives a salt, the structure may show the parent alone. Read-outs that look alike come from different tables or passages of the source.

Key:
SARS-CoV-2 [1] = conditions: cited from earlier work; for Vero-E6 CPE inhibition %: 10 µM; for EC50: read-out: Vero-E6 EC50
SARS-CoV-2 [2] = conditions: cited from earlier work; for CaCo2 CPE inhibition %: Caco-2, 20 µM
Vero-E6 cells = test: cells; type: cell-based; conditions: for activation at 5 µM / activation at 10 µM / activation at 20 µM: Vero C1008, 24 h; for activation at 5 µM: read-out: PLD Effect in % 5 µM; for activation at 20 µM: read-out: PLD Effect in % 20 µM
A549-ACE2 cells = test: cells; type: cell-based; conditions: A549-ACE2, 24 h, read-out: PLD_Effect(%) A549-ACE2
[3] = Chlorocebus sabaeus, read-out: PLD Effect in % 10 µM
[4] = Chlorocebus sabaeus, Vero C1008, read-out: PLD EC50
[5] = Chlorocebus sabaeus, Vero C1008, read-out: PLD EC50 µM
[6] = Chlorocebus sabaeus, read-out: PLD_Effect(%) VERO-E6

| Molecule | Vero-E6 CPE inhibition % (SARS-CoV-2 [1]) | CaCo2 CPE inhibition % (SARS-CoV-2 [2]) | PLD Effect in % 5 µM (Vero-E6 cells) | PLD Effect in % 10 µM (Vero-E6 cells) | PLD Effect in % 20 µM (Vero-E6 cells) | EC50 (Vero-E6 cells; read-out: PLD EC50) [µM] | EC50 (SARS-CoV-2 [1]) [nM] | activation at 5 µM (Vero-E6 cells; Chlorocebus sabaeus) [%] | activation at 10 µM (Vero-E6 cells; [3]) [%] | activation at 20 µM (Vero-E6 cells; Chlorocebus sabaeus) [%] | EC50 (Vero-E6 cells; [4]) [µM] | EC50 (Vero-E6 cells; [5]) [µM] | Vero-E6 EC50 µM (SARS-CoV-2 [1]) | CaCo2 EC50 µM (SARS-CoV-2 [2]) | PLD EC50 µM (Vero-E6 cells) | activation at 10 µM (A549-ACE2 cells) [%] | activation at 10 µM (Vero-E6 cells; [6]) [%] |
| --- | --- | --- | --- | --- | --- | --- | --- | --- | --- | --- | --- | --- | --- | --- | --- | --- | --- |
| COc1ccccc1C1(O)CCN(CCCn2c3ccccc3c3ccccc32)CC1 [NNC-05-2090, reference compound] | -0.32% | 71.83% | 128.41% | 178.14% | 118.98% | 4.91 | – | – | – | – | – | – | – | – | – | – | – |
| CC(C)[C@H]1c2ccc(F)cc2CC[C@@]1(CCN(C)CCCc1nc2ccccc2[nH]1)OC(=O)C1CC1 [NNC-55-0396, reference compound] | 0% | 58.09% | 87.06% | 154.81% | -43.08% | 6.28 | 8210 | – | – | – | – | – | – | – | – | – | – |
| CCN(CC)CCCCNc1ncc2cc(-c3c(Cl)cccc3Cl)c(NC(=O)NC(C)(C)C)nc2n1 [PD-161570, reference compound] | 12.35% | 108.10% | 163.59% | 118.17% | 36.18% | 0.63 | 145000 | – | – | – | – | – | – | – | – | – | – |
| CCOc1cc2ncc(C#N)c(Nc3ccc(F)c(Cl)c3)c2cc1NC(=O)/C=C/CN(C)C [Pelitinib (EKB-569), Pelitinib, reference compound] | -0.31 | 83.39% | – | – | – | – | – | 76.1 | 85.5 | 101 | – | – | – | – | – | – | – |
| CCOc1cc(C(C)(C)C)ccc1C1=N[C@@](C)(c2ccc(Cl)cc2)[C@@](C)(c2ccc(Cl)cc2)N1C(=O)N1CCN(CCCS(C)(=O)=O)CC1 [RG7112 (RO50455337), reference compound] | 6.32 | 88.52% | – | – | – | – | – | 109 | 141 | 88.5 | 2.56 | – | – | – | – | – | – |
| COc1ccc(NC(=O)c2ccc(-c3ccc(-c4noc(C)n4)cc3C)cc2)cc1OCCN(C)C [SB-216641, reference compound] | -0.22% | 57.65% | 93.22% | 104.74% | -42.60% | 1.19 | – | – | – | – | – | – | – | – | – | – | – |
| Cc1ccc(C(=O)N(CCCN)[C@@H](c2oc3cc(Cl)ccc3c(=O)c2Cc2ccccc2)C(C)C)cc1 [SB-743921, reference compound] | -0.36% | 78.89% | – | – | – | – | – | 172 | 224 | -43.6 | – | 2.49 | – | – | – | – | – |
| COC(=O)C1=C(C)NC(C)=C(C(=O)NCCCN2CCC(c3ccccc3)(c3ccccc3)CC2)C1c1ccc([N+](=O)[O-])cc1 (stereo not shown) [SNAP-5089, reference compound] | -0.12% | 72.63% | – | – | – | – | – | 66.5 | 78.4 | 24.9 | – | 2.01 | – | – | – | – | – |
| COc1ccc(CCN(C)CCCOc2ccc(S(=O)(=O)c3c(C(C)C)c4ccccc4n3C)cc2)cc1OC [SR-33805 oxalate, reference compound] | 0.02 | 67.72% | 54.44% | 86.07% | 137.08% | 9.26 | – | – | – | – | – | – | – | – | – | – | – |
| CN(C)CCNc1nc2cc(O)ccc2c2c1C(=O)c1ccccc1-2 [TAS-103, reference compound] | -0.08% | 92.56% | 135.39% | 172.31% | 121.21% | 2.29 | – | – | – | – | – | – | – | – | – | – | – |
| COc1cc2c(Nc3ccc(Br)cc3F)ncnc2cc1OCC1CCN(C)CC1 [Vandetanib (ZD6474), Vandetanib, reference compound] | 0.29 | 51.24 | – | – | – | – | – | 129 | 136 | -32.7 | 1.05 | – | – | – | – | – | – |
| CN(C)CC/C=C1/c2ccccc2Sc2ccc(Cl)cc21 [chlorprothixene hydrochloride, reference compound] | 0.27% | 55.65% | – | – | – | – | – | 124 | 113 | 192 | – | 2.36 | – | – | – | – | – |
| CN1CCN(c2ccc(C(=O)Nc3n[nH]c4ccc(Cc5cc(F)cc(F)c5)cc34)c(NC3CCOCC3)c2)CC1 [entrectinib (RXDX-101), entrectinib, reference compound] | toxic | toxic | toxic | toxic | toxic | – | – | – | – | – | – | – | toxic | toxic | toxic | – | – |
| CCCCN(CCCC)CCC(O)c1cc2c(Cl)cc(Cl)cc2c2cc(C(F)(F)F)ccc12 (stereo not shown) [halofantrine HCl, reference compound] | 0.17% | 91.38% | – | – | – | – | – | 79.8 | 87 | 114 | – | 1.66 | – | – | – | – | – |
| Cc1ccc(C(=O)N(CCCN)[C@@H](c2nc3cc(Cl)ccc3c(=O)n2Cc2ccccc2)C(C)C)cc1 [ispinesib (SB-715992), ispinesib, reference compound] | -0.29 | 91.86% | – | – | – | – | – | 207 | 205 | -43.2 | 1.81 | – | – | – | – | – | – |
| CN(C)C(=O)C(CCN1CCC(O)(c2ccc(Cl)cc2)CC1)(c1ccccc1)c1ccccc1 [loperamide hydrochloride, reference compound] | 5.03% | 58.93% | – | – | – | – | – | 55 | 75.4 | 86.1 | – | – | – | – | – | – | – |
| CN1C[C@H](CNC(=O)OCc2ccccc2)C[C@@H]2c3cccc4c3c(cn4C)C[C@H]21 [metergoline, reference compound] | 0.05% | 54.65% | – | – | – | – | – | 61 | 73 | 103 | – | – | – | – | – | – | – |
| NCCC(Oc1ccc(C(F)(F)F)cc1)c1ccccc1 (stereo not shown) [norfluoxetine, reference compound] | -0.11% | 94.99% | – | – | – | – | – | 92.1 | 112 | 198 | – | 1.96 | – | – | – | 108 | 62.2 |
| COc1cc(C)c2c(Oc3cccc(C(F)(F)F)c3)c(OC)cc(NC(C)CCCN)c2n1 (stereo not shown) [tafenoquine, reference compound] | toxic | toxic | toxic | toxic | toxic | – | – | – | – | – | – | – | toxic | toxic | toxic | – | – |
| COc1cccc([C@@H](C)NCCCc2ccccc2Cl)c1 [tecalcet, reference compound] | -0.13% | 78.10% | – | – | – | – | – | 59.6 | 74.3 | 102 | – | 2.6 | – | – | – | 93 | 70.1 |
| c1cc2c(cc1C1CCCCC1)c1c3n2CCNC3CCC1 (stereo not shown) [tetrindole, reference compound] | -0.34% | 75.19% | 133.51% | 133.70% | -33.00% | 9.59 | – | – | – | – | – | – | – | – | – | – | – |
| amodiaquine dihydrochloride [reference compound] | 20.16% | 78.80% | 88.75% | 101.86% | 186.68% | – | 21500 | – | – | – | – | – | – | – | – | – | – |
